Data as given in BindingDB's records for doi:10.1021/jm030092d (Research Triangle Institute, 2003).
pKi: −log10 of the molar value.

Assay: Inhibition of binding of [3H]DADLE to Opioid receptor delta 1 in guinea pig membranes

SMILES | pKi
C[C@H]1CN(CC[C@H](O)C2CCCCC2)CC[C@@]1(C)c1cccc(O)c1 [3-[1-(3-Cyclohexyl-3-hydroxy-propyl)-3,4-dimethyl-piperidin-4-yl]-phenol] | 6.70
C[C@H]1CN(C/C=C/c2ccccc2)CC[C@@]1(C)c1cccc(O)c1 [3-[(3R,4R)-3,4-Dimethyl-1-((E)-3-phenyl-allyl)-piperidin-4-yl]-phenol] | 6.49
C[C@H]1CN(C/C=C/c2ccccc2Cl)CC[C@@]1(C)c1cccc(O)c1 [3-{(3R,4R)-1-[(E)-3-(2-Chloro-phenyl)-allyl]-3,4-dimethyl-piperidin-4-yl}-phenol] | 6.77
Cc1ccccc1/C=C/CN1CC[C@@](C)(c2cccc(O)c2)[C@@H](C)C1 [RTI-5989-25] | 6.85
